Laboratory results published in patent US20130210034A1, “COMPLEX PHOSPHOPROTEIN ACTIVATION PROFILES” (BECKMAN COULTER, INC., priority 2005, published 2013).
Values joined by “and” are separate entries in the source; they are usually repeats but may differ in a detail not shown here. Equal values may be shown once.

Experiments:
Format in all cases: cell-based, human
pERK [1] = experiment: Phosphoprotein kinetic profiles in CD34+, CD117+ cells of AML bone marrow samples; details: for pERK Amp (peak amplitude of fold stimulation) / pERK RI (response interval): CD34^+, CD117^+ cells; for Frequency, pERK: frequency of positive-stained cells; for Positives/Negatives, pERK: ratio of positive- to negative-stained cells; for pERK response, fold greater than in healthy donor samples: SCF: AML1 and AML2, FL: AML1
Description: (§1) To assess the signal transduction response after growth factor simulation, 100 to 200 μL of processed samples including about 2×10^6 WBC/100 μL were added to tubes and incubated at 37° C. for 30 minutes. For inhibition experiments, cells were incubated with 100 μM U0126, 1 μg/mL rapamycin, or both for at least 20 minutes prior to cytokine addition and in all cases for 30 min prior to formaldehyde addition. […] After stimulation the cells were immediately fixed by the addition of formaldehyde to a final concentration of 4% v/v and incubated for 10 minutes at room temperature. Following fixation, red blood cells were lysed by the addition of TRITON-X/PBS solution (0.1% v/v final concentration Triton X-100) supplemented with a 1 x phosphatase inhibitor cocktail (PIC; final concentrations: 0.2 mM sodium orthovanadate, 2 mM sodium pyrophosphate decahydrate, 2 mM [3-glycerophosphate, and 10 mM sodium fluoride) and incubation at 37° C. for 20 minutes. The incubated solution was chilled by the addition of ice-cold Wash Buffer (final concentration 1×PBS and either 4% bovine serum albumin (BSA) or 4% heat-inactivated fetal bovine serum (FBS), supplemented with 1×PIC), and the samples were centrifuged at 300 g for 6 minutes at 4° C.). If the lysis was incomplete, samples were retreated with 0.1% Triton X-100 at 37° C. for 10 to 20 minutes. After removal of the supernatant, cells were washed twice in ice-cold Wash Buffer supplemented with 1×PIC and permeabilized by the addition of pre-chilled 80% methanol while simultaneously vortexing the tube and incubated on ice for 10 minutes. Methanol was removed by centrifugation, the pellet was washed with ice-cold 1×PBS, and non-specific binding was blocked by the addition of ice-cold Wash Buffer supplemented with 1×PIC and incubation at 4° C. for a minimum of 30 minutes.
(§2) To stain cells with fluorescent conjugated monoclonal antibodies, the incubated solution was centrifuged to remove the supernatant and the pellet was incubated for 60 minutes at 4° C. with an antibody staining solution including 0.25 μg to 0.50 μg of pS6-Pacific Blue, pERK-ALEXA 488, pSTAT5-ALEXA 647, CD34-PE, CD45-PerCP, and CD117-PC7. Samples were washed three times with ice-cold Wash Buffer supplemented with 1×PIC, resuspended in 0.5 mL ice-cold Wash Buffer supplemented with 1×PIC including 0.5 μg/mL DAPI, and analyzed by flow cytometryusing a BD LSR II Flow Cytometer, equipped with a High Throughput Sampler (HTS).
(§3) First, doublets, aggregates, and debris were excluded by gating on single cell events in the SSC-Area versus SSC-Height histogram. Then, in events passing through this gate, debris near the origin of the FSC-Area versus SSC-Area plot (gray in FIG. 4A) was excluded by drawing a gate around an area encompassing, primarily, lymphocytes, monocytes, and granulocytes (LMG, black in FIG. 4A). Next, in cells passing through the LMG gate, the blast region (circle in FIG. 4B) was identified in the CD45 versus SSC-Area histogram (FIG. 4B). From this blast population, CD34+, CD117+ cells were identified in the CD34 versus CD117 plot (boxed area in FIG. 4C). Finally, these cells were further analyzed for cytokine-mediated increases in phosphorylation by constructing gates in the single parameter histograms (for positively and negatively stained events, i.e., for the phosphorylated and non-phosphorylated forms, respectively, of each protein) for pS6 (FIGS. 4D and 4G), pERK (FIGS. 4E and 4H), and pSTAT5 (FIGS. 4F and 4I). […] The dotted lines in each of these histograms represent unstimulated cells at t=0 min. FCS files were processed with WinList 6.0 3D (Verity Software House).

pSTAT5 [2] = experiment: as above
Description: as §1, §2, §3

pS6 [3] = experiment: as above; details: for pS6 Amp (peak amplitude of fold stimulation) / pS6 RI (response interval): CD34^+, CD117^+ cells; for Frequency, pS6: frequency of positive-stained cells; for Positives/Negatives, pS6: ratio of positive- to negative-stained cells
Description: as §1, §2, §3

pERK [4] = experiment: Phosphoprotein kinetic profiles in bone marrow samples from healthy donors; details: for pERK Amp (peak amplitude of fold stimulation) / pERK RI (response interval): CD34^+, CD117^+ cells
Description: (§4) Phosphoprotein kinetic profiles were analyzed in bone marrow aspiration samples from nine healthy, adult donors (i.e., normal bone marrow or NBM) and from five AML patients. Samples from healthy donors included 5 males and 4 females, ranging in age from 26 to 49 years. Approximately 10 to 20 mL of bone marrow (BM) samples were collected from the posterior iliac crest of the volunteers using IRB approved protocols. The BM samples were filtered using a 40 μm Nylon cell strainer to remove marrow particles and the white blood cell concentration determined using a blood analyzer. […] The samples were immediately used for subsequent experimentation.
as §1, §2
(§5) First, doublets, aggregates, and debris were excluded by gating on single cell events in the SSC-Area versus SSC-Height histogram. Then, in events passing through this gate, debris near the origin of the FSC-Area versus SSC-Area plot (gray in FIG. 4A) was excluded by drawing a gate around an area encompassing, primarily, lymphocytes, monocytes, and granulocytes (LMG, black in FIG. 4A). Next, in cells passing through the LMG gate, the blast region (circle in FIG. 4B) was identified in the CD45 versus SSC-Area histogram (FIG. 4B). From this blast population, CD34+, CD117+ cells were identified in the CD34 versus CD117 plot (boxed area in FIG. 4C).

pSTAT5 [5] = experiment: as above; details: CD34^+, CD117^+ cells, healthy donor samples
Description: as §4, §1, §2, §5

pS6 [6] = experiment: as above; details: for pS6 Amp (peak amplitude of fold stimulation) / pS6 RI (response interval): CD34^+, CD117^+ cells
Description: as §4, §1, §2, §5

[7] = SCF-stimulated, healthy donor samples
[8] = SCF-stimulated, mean of healthy donors 6 to 9

Stem Cell Factor [SCF]
pERK Amp (peak amplitude of fold stimulation) (pERK [1]; AML1 sample (Example 6)): 1600 | pERK RI (response interval) (pERK [1]; AML1 sample (Example 6)): 30 min | pERK Amp (peak amplitude of fold stimulation) (pERK [1]; AML2 sample (Example 6)): 1300 | pERK RI (response interval) (pERK [1]; AML2 sample (Example 6)): 20 min | Fold Stimulation, AML to NBM ratio (pERK)AML1/(pERK)D6-9 (pERK [1]; SCF-stimulated): 30 | Fold Stimulation, AML to NBM ratio (pERK)AML2/(pERK)D6-9 (pERK [1]; SCF-stimulated): 25 | Frequency, AML to NBM ratio (pERK)AML1/(pERK)D6-9 (pERK [1]; SCF-stimulated): 1.1 | Frequency, AML to NBM ratio (pERK)AML2/(pERK)D6-9 (pERK [1]; SCF-stimulated): 1.1 | MFI, AML to NBM ratio (pERK)AML1/(pERK)D6-9 (pERK [1]; SCF-stimulated): 0.41 | MFI, AML to NBM ratio (pERK)AML2/(pERK)D6-9 (pERK [1]; SCF-stimulated): 0.35 | Positives/Negatives, AML to NBM ratio (pERK)AML1/(pERK)D6-9 (pERK [1]; SCF-stimulated): 2.0 | Positives/Negatives, AML to NBM ratio (pERK)AML2/(pERK)D6-9 (pERK [1]; SCF-stimulated): 1.5 | Fold Stimulation, pERK (pERK [1]; SCF-stimulated, AML1): 1600 | MFI, pERK (pERK [1]; SCF-stimulated, AML1): 1500 | Frequency, pERK (pERK [1]; SCF-stimulated, AML1): 88 | Positives/Negatives, pERK (pERK [1]; SCF-stimulated, AML1): 10 | Fold Stimulation, pERK (pERK [1]; SCF-stimulated, AML2): 1300 | MFI, pERK (pERK [1]; SCF-stimulated, AML2): 1300 | Frequency, pERK (pERK [1]; SCF-stimulated, AML2): 90 | Positives/Negatives, pERK (pERK [1]; SCF-stimulated, AML2): 7.4 | frequency of positively stained cells at its maximum, pERK (pERK [1]; SCF-stimulated, AML samples): approximately 90% | pERK response, fold greater than in healthy donor samples (pERK [1]): approximately 10 fold | pSTAT5 Amp (peak amplitude of fold stimulation) (pSTAT5 [2]; AML1 sample (Example 6)): 32 | pSTAT5 Amp (peak amplitude of fold stimulation) (pSTAT5 [2]; AML2 sample (Example 6)): 2 | pSTAT5 RI (response interval) (pSTAT5 [2]; AML2 sample (Example 6)): 6 min | pS6 Amp (peak amplitude of fold stimulation) (pS6 [3]; AML1 sample (Example 6)): 1100 | pS6 RI (response interval) (pS6 [3]; AML1 sample (Example 6)): 30 min | pS6 Amp (peak amplitude of fold stimulation) (pS6 [3]; AML2 sample (Example 6)): 620 | pS6 RI (response interval) (pS6 [3]; AML2 sample (Example 6)): 30 min | Fold Stimulation, AML to NBM ratio (pS6)AML1/(pS6)D6-9 (pS6 [3]; SCF-stimulated): 110 | Fold Stimulation, AML to NBM ratio (pS6)AML2/(pS6)D6-9 (pS6 [3]; SCF-stimulated): 62 | Frequency, AML to NBM ratio (pS6)AML1/(pS6)D6-9 (pS6 [3]; SCF-stimulated): 3.7 | Frequency, AML to NBM ratio (pS6)AML2/(pS6)D6-9 (pS6 [3]; SCF-stimulated): 3.7 | MFI, AML to NBM ratio (pS6)AML1/(pS6)D6-9 (pS6 [3]; SCF-stimulated): 3.0 | MFI, AML to NBM ratio (pS6)AML2/(pS6)D6-9 (pS6 [3]; SCF-stimulated): 2.3 | Positives/Negatives, AML to NBM ratio (pS6)AML1/(pS6)D6-9 (pS6 [3]; SCF-stimulated): 80 | Positives/Negatives, AML to NBM ratio (pS6)AML2/(pS6)D6-9 (pS6 [3]; SCF-stimulated): 52 | Fold Stimulation, pS6 (pS6 [3]; SCF-stimulated, AML1): 1100 | MFI, pS6 (pS6 [3]; SCF-stimulated, AML1): 3100 | Frequency, pS6 (pS6 [3]; SCF-stimulated, AML1): 96 | Positives/Negatives, pS6 (pS6 [3]; SCF-stimulated, AML1): 35 | Fold Stimulation, pS6 (pS6 [3]; SCF-stimulated, AML2): 620 | MFI, pS6 (pS6 [3]; SCF-stimulated, AML2): 2400 | Frequency, pS6 (pS6 [3]; SCF-stimulated, AML2): 97 | Positives/Negatives, pS6 (pS6 [3]; SCF-stimulated, AML2): 23 | frequency of positively stained cells at its maximum, pS6 (pS6 [3]; SCF-stimulated, AML samples): ~97% | pERK Amp (peak amplitude of fold stimulation) (pERK [4]; healthy donor samples): 120 and 120 ± 28 | pERK RI (response interval) (pERK [4]; healthy donor samples): 8.7 min and 8.7 ± 0.3 min | frequency of positively stained cells at its maximum, pERK (pERK [4]; [7]): 81% | Fold Stimulation, pERK (pERK [4]; [8]): 53 | Frequency, pERK (pERK [4]; [8]): 81 | MFI, pERK (pERK [4]; [8]): 3700 | Positives/Negatives, pERK (pERK [4]; [8]): 4.9 | pSTAT5 Amp (peak amplitude of fold stimulation) (pSTAT5 [5]): 0.8 ± 0.2 | pSTAT5 RI (response interval) (pSTAT5 [5]): Variable | pS6 Amp (peak amplitude of fold stimulation) (pS6 [6]; healthy donor samples): 18 ± 5.1 | pS6 RI (response interval) (pS6 [6]; healthy donor samples): 28 min and 28 ± 1.2 min | frequency of positively stained cells at its maximum, pS6 (pS6 [6]; [7]): 26% | Fold Stimulation, pS6 (pS6 [6]; [8]): 10 | Frequency, pS6 (pS6 [6]; [8]): 26 | MFI, pS6 (pS6 [6]; [8]): 1040 | Positives/Negatives, pS6 (pS6 [6]; [8]): 0.44

B1: FMS-Like Tyrosine Kinase 3 (FLT-3) ligand (protein, UniProt P49771 27-235, looked up)
Fms-related tyrosine kinase 3 …: TQDCSFQHSPISSDFAVKIRELSDYLLQDYPVTVASNLQDEELCGGLWRLVLAQRWMERLKTVAGSKMQGLLERVNTEIHFVTKCAFQPPPSCLRFVQTNISRLLQETSEQLVALKPWITRQNFSRCLELQCQPDSSTLPPPWSPRPLEATAPTAPQPPLLLLLLLPVGLLLLAAAWCLHWQRTRRRTPRPGEQVPPVPSPQDLLLVEH
pERK Amp (peak amplitude of fold stimulation) (pERK [1]; AML1 sample (Example 6)): 460 | pERK RI (response interval) (pERK [1]; AML1 sample (Example 6)): 30 min | pERK response, fold greater than in healthy donor samples (pERK [1]): approximately 10 fold | pSTAT5 Amp (peak amplitude of fold stimulation) (pSTAT5 [2]; AML1 sample (Example 6)): 2 | pSTAT5 RI (response interval) (pSTAT5 [2]; AML1 sample (Example 6)): 2 min | pS6 Amp (peak amplitude of fold stimulation) (pS6 [3]; AML1 sample (Example 6)): 140 | pS6 RI (response interval) (pS6 [3]; AML1 sample (Example 6)): 30 min | pERK Amp (peak amplitude of fold stimulation) (pERK [4]; healthy donor samples): 51 and 51 ± 11 | pERK RI (response interval) (pERK [4]; healthy donor samples): 18 min and 18 ± 1.5 min | pSTAT5 Amp (peak amplitude of fold stimulation) (pSTAT5 [5]): 0.8 ± 0.2 | pSTAT5 RI (response interval) (pSTAT5 [5]): Variable | pS6 Amp (peak amplitude of fold stimulation) (pS6 [6]; healthy donor samples): 12 and 12 ± 1.4 | pS6 RI (response interval) (pS6 [6]; healthy donor samples): 37 min and 37 ± 6.0 min
